The source of these data is US12215095B2, “Compounds for the treatment of respiratory diseases” (Tianli Biotech Pty Ltd, priority 2018, dated 2025).

One experiment addresses casein kinase 1δ (Homo sapiens (Human), UniProt P48730). Briefly: Kinase inhibition assay (HotSpot assay, Reaction Biology Corp). The class given is biochemical. Particulars: 10 μM ATP, 10-dose IC50 mode, 3-fold serial dilution starting at 10 μM; for pIC50: casein kinase 1δ; for IC50: read-out: CK1δ IC50.
A further experiment has as its system TGF-β-induced IL-11. Briefly: Human parenchymal fibroblast cell assay: inhibition of TGF-β-induced IL-11 (ELISA). The format is cell-based. Particulars: primary human parenchymal fibroblasts, 100 pM TGF-β1, 16-24 hours, 4.00 is assigned to compounds that failed to cause 50% or more inhibition at 100 µM; for IC50: Fibroblast, read-out: pIC50 IL-11 suppression (converted). Here is the method: Primary human parenchymal fibroblast cells (pFbs) were cultured from parenchyma of lung resection specimens and from non-transplanted lungs of donors without chronic respiratory disease. pFbs were passaged in Dulbecco's Modified Eagle's Media (DMEM) containing 10% (v/v) heat-inactivated fetal calf serum (FCS), 15 mM HEPES, 0.2% (v/v) sodium bicarbonate, 2 mM L-glutamine, 1% (v/v) non-essential amino acids, 1% (v/v) sodium pyruvate, 2.5 μg/mL amphotericin, 5 IU/mL penicillin and 50 μg/mL streptomycin.
Prior to experimentation, pFb were incubated in serum-free DMEM containing 0.25% bovine serum albumin (BSA) and insulin-transferrin-selenium-containing supplement (Monomed A; CSL, Parkville, Melbourne, Australia). The cells were incubated with small molecular CK1δelta inhibitors (0.1-10 μM) for 30 min prior to 100 pM TGF-β1 (R&D Systems, Minneapolis, MN) and the incubation continued for 16-24 hours prior to harvest of supernatant for detection of immunoreactive IL-11. Stock solutions were made as 10 mM in 100% DMSO and diluted to the required concentration in medium containing 0.1% DMSO (final concentration).
Supernatants were collected for measurement of IL-11 (R&D DuoSet, DY218) by ELISA following the manufacturers' instructions. Generally, capture antibodies were initially diluted to the recommended concentrations using PBS buffer, and then used to coat the wells of 96-well microplates (Greiner, #655061) by adding 50 μL/well and incubated overnight at room temperature. Next day, solutions were discarded and wells were washed 3 times with wash buffer (PBS containing 0.1% (v/v) Tween-20) prior to the addition of 200 μL of blocking solution (PBS containing 1% (v/v) BSA) for 1 hour to block non-specific sites. Plates were then washed 3 times with wash buffer and 50 μL of samples or standards were then added to wells and incubated for 2 hours at room temperature. After the incubation, plates were washed 3 times with wash buffer and 50 μL of detection antibodies were added to wells and incubated for 2 hours at room temperature. Plates were then washed 3 times before adding streptavidin-conjugated horseradish peroxidase (at the recommended concentrations) for 45 min. Plates were then washed 5 times with wash buffer and 100 μL TMB substrate solution (equal parts A and B, BD Biosciences) was added to each well until sufficient signals emerged. The reactions were inactivated by adding 100 μL sulphuric acid (2M H2SO4). The absorbance was measured at 450 nm using the Multiskan Ascent® plate reader. The absorbance of the cytokine standards was fitted to a logistic equation, allowing the concentrations of cytokine in samples to be determined.
pIC50 values (the negative log of the concentration suppressing IL-11 level by 50%) for inhibition of TGF-β-induced IL-11 were interpolated from the linear regression of log concentration small molecule versus IL-11 level (Table 4 and FIG. 2).
On the technique in general: In an ELISA, binding on a coated surface is turned into a signal by an enzyme label.

The structures appear in SMILES notation. Marks after values point to notes of the source that are not given here.

Chain of casein kinase 1δ (P48730 whole entry): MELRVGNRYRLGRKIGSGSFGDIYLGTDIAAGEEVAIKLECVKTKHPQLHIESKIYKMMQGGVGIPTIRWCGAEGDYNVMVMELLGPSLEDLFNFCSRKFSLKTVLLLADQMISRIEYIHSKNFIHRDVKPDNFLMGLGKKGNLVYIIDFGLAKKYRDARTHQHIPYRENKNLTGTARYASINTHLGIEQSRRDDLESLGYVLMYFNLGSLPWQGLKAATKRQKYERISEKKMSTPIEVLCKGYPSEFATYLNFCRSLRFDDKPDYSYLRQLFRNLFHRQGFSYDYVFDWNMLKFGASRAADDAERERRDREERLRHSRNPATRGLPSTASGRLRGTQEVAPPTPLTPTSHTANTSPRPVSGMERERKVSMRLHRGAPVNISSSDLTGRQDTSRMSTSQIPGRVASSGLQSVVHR

Regarding `CC(C)(F)n1cnc(-c2ccc(F)cc2)c1-c1ccnc(NCC2CCC(F)(F)CC2)n1` [ZH2-62], on casein kinase 1δ, the pIC50 is 7.42. Further, in the experiment on TGF-β-induced IL-11, the “pIC50 IL-11 suppression” value is given as < 4.00*.

The compound `Fc1ccc(-c2ncn(C3CCCCC3)c2-c2ccnc(NCc3ccc(-c4ccccc4)cc3)n2)cc1` [ZH2-66, N-([1,1′-Biphenyl]-4-ylmethyl)-4-(1-cyclohexyl-4-(4-fluorophenyl)-1H-imidazol-5-yl)pyrimidin-2-amine] displayed a pIC50 on casein kinase 1δ of 5.86. The IC50 in the experiment with TGF-β-induced IL-11 was above 100000 nM.

As to `Fc1ccc(-c2ncn(C3CCCCC3)c2-c2ccnc(NCC3CCCC3)n2)cc1` [ZH2-86, 4-(1-Cyclohexyl-4-(4-fluorophenyl)-1H-imidazol-5-yl)-N-(cyclopentylmethyl)pyrimidin-2-amine], on casein kinase 1δ, the IC50 came out at 7.16 nM and the pIC50 turned out to be 8.15. The IC50 with TGF-β-induced IL-11 is 1910 nM.

For the compound `Fc1ccc(-c2ncn(C3CCCCC3)c2-c2ccnc(NCC3CCCCC3)n2)cc1` [ZH2-98, 4-(1-Cyclohexyl-4-(4-fluorophenyl)-1H-imidazol-5-yl)-N-(cyclohexylmethyl)pyrimidin-2-amine], at casein kinase 1δ, the IC50 worked out at 12.6 nM and the pIC50 worked out at 7.91. Further, the IC50 in the experiment with TGF-β-induced IL-11 is 1780 nM.

As to `Fc1ccc(-c2ncn(C3CCCCC3)c2-c2ccnc(NCC3CCOCC3)n2)cc1` [ZH2-102, 4-(1-Cyclohexyl-4-(4-fluorophenyl)-1H-imidazol-5-yl)-N-((tetrahydro-2H-pyran-4-yl)methyl)pyrimidin-2-amine], on casein kinase 1δ, the IC50 came out at 1.7 nM and the pIC50 worked out at 8.77. In the experiment on TGF-β-induced IL-11, the IC50 was 407 nM.

With `FCn1cnc(-c2ccc(F)cc2)c1-c1ccnc(NCCCc2ccccc2)n1` [ZH2-122], the IC50 at casein kinase 1δ is 5.07 nM.

As for `Fc1ccc(-c2ncn(C3CCCCC3)c2-c2ccnc(NCc3ccccn3)n2)cc1` [ZH2-130, 4-(1-Cyclohexyl-4-(4-fluorophenyl)-1H-imidazol-5-yl)-N-(pyridin-2-ylmethyl)pyrimidin-2-amine(2-picolyl)], on casein kinase 1δ, the IC50 is 1.93 nM and the pIC50 amounted to 8.71. The IC50 with TGF-β-induced IL-11 is 724 nM.

On to `Fc1ccc(-c2ncn(C3CCCCC3)c2-c2ccnc(NCC3CCC(F)(F)CC3)n2)cc1` [ZH3-74, 4-(1-Cyclohexyl-4-(4-fluorophenyl)-1H-imidazol-5-yl)-N-((4,4-difluorocyclohexyl)methyl)pyrimidin-2-amine], for which the IC50 at casein kinase 1δ was 2.97 nM; in the experiment with TGF-β-induced IL-11, 6760 nM. This compound also came in with a pIC50 against casein kinase 1δ of 8.53.

With `C[C@H](Nc1nccc(-c2c(-c3ccc(F)cc3)ncn2C2CCCCC2)n1)C1CCCCC1` [ZH3-90, (S)-4-(1-Cyclohexyl-4-(4-fluorophenyl)-1H-imidazol-5-yl)-N-(1-cyclohexylethyl)pyrimidin-2-amine], the pIC50 on casein kinase 1δ is 6.57. For the same compound, the IC50 in the experiment with TGF-β-induced IL-11 was above 100000 nM.

With `C[C@@H](Nc1nccc(-c2c(-c3ccc(F)cc3)ncn2C2CCCCC2)n1)C1CCCCC1` [ZH3-94, (R)-4-(1-Cyclohexyl-4-(4-fluorophenyl)-1H-imidazol-5-yl)-N-(1-cyclohexylethyl)pyrimidin-2-amine], the IC50 was 34.4 nM at casein kinase 1δ and 912 nM in the experiment on TGF-β-induced IL-11. The compound further gave a negative-log IC50 (pIC50) at casein kinase 1δ of 7.46.

On to `Fc1ccc(-c2ncn(C3CCCCC3)c2-c2ccnc(NCCCc3ccccc3)n2)cc1` [ZH3-98, 4-(1-Cyclohexyl-4-(4-fluorophenyl)-1H-imidazol-5-yl)-N-(3-phenylpropyl)pyrimidin-2-amine], for which the IC50 was 2.54 nM on casein kinase 1δ and 2000 nM with TGF-β-induced IL-11. On casein kinase 1δ, this compound displayed a pIC50 of 8.59.

In general, pIC50 refers to the negative decadic logarithm of the IC50, by convention in mol/L. Low values mean a high IC50, high ones a low IC50.
